Assay results taken from ChEMBL document CHEMBL5724696, “Autophagy assay results for EUbOPEN Chemogenomics Library” (2024).

Key:
Format in all cases: functional, Homo sapiens
TERT-RPE1 = assay: (§1) Here: values are normalized to the negative (DMSO; defined as 0% autophagy induction) and positive (250nM Torin1; mTOR inhibitor; defined as maximal inducer of autophagy = 100%) control compounds and represented as % of autophagy induction. […] The impact of autophagy induction on cells is complex and depends on the affected target. As such, the magnitude of a phenotype may not be equally mirrored in the %-value of autophagy induction and vice versa. The dynamics of the induction may indicate the mode of activation: e.g. activation via phosphorylation or a signaling cascade may occur fast, while activation via transcription factors may take considerably longer. […] Of note, treatment concentrations may be sub-optimal for specific compounds, leading to false negative annotations.; settings: Culturing Media DMEM/F12 (1:1), 1 % Penicillin/Streptomycin, 10% Fetal bovin serum Add-On: No, Screening Media Control DMEM/F12 (1:1), Screening Media Samples DMEM/F12 (1:1)
U2OS [1] = assay: as §1; settings: Culturing Media DMEM, 1 % Penicillin/Streptomycin, 10% Fetal bovin serum Add-On: No, Screening Media Control DMEM, Screening Media Samples DMEM
U2OS [2] = assay: as §1; settings: Culturing Media DMEM, 1 % Penicillin/Streptomycin, 10% Fetal bovin serum Add-On: No, Screening Media Control DMEM, Screening Media Samples DMEM; remark: listed apart in the source
[3] = Compound Concentration 0.5 uM, Timepoint 12 hours
[4] = Compound Concentration 0.5 uM, Timepoint 24 hours
[5] = Compound Concentration 0.5 uM, Timepoint 36 hours
[6] = Compound Concentration 0.5 uM, Timepoint 60 hours
[7] = Compound Concentration 2 uM, Timepoint 12 hours
[8] = Compound Concentration 2 uM, Timepoint 24 hours
[9] = Compound Concentration 2 uM, Timepoint 36 hours
[10] = Compound Concentration 2 uM, Timepoint 60 hours
[11] = Compound Concentration 10 uM, Timepoint 12 hours
[12] = Compound Concentration 10 uM, Timepoint 24 hours
[13] = Compound Concentration 10 uM, Timepoint 36 hours
[14] = Compound Concentration 10 uM, Timepoint 60 hours

## CS(=O)(=O)NC[C@H]1CC[C@H](Nc2nc3c(s2)CCSc2ccccc2-3)CC1
TERT-RPE1; [3]
  autophagy induction: -4.034%
TERT-RPE1; [4]
  autophagy induction: -8.281%
TERT-RPE1; [5]
  autophagy induction: -9.381%
TERT-RPE1; [6]
  autophagy induction: -11.7228%
TERT-RPE1; [7]
  autophagy induction: -3.533%
TERT-RPE1; [8]
  autophagy induction: -4.081%
TERT-RPE1; [9]
  autophagy induction: -4.248%
TERT-RPE1; [10]
  autophagy induction: -9.574%
TERT-RPE1; [11]
  autophagy induction: -3.228%
TERT-RPE1; [12]
  autophagy induction: -1.909%
TERT-RPE1; [13]
  autophagy induction: 1.0286%
TERT-RPE1; [14]
  autophagy induction: 5.565%
U2OS [1]; [3]
  autophagy induction: -4.815%
U2OS [1]; [4]
  autophagy induction: -2.571%
U2OS [1]; [5]
  autophagy induction: -1.135%
U2OS [1]; [6]
  autophagy induction: -2.5406%
U2OS [1]; [7]
  autophagy induction: -10.1359%
U2OS [1]; [8]
  autophagy induction: -5.225%
U2OS [1]; [9]
  autophagy induction: -2.722%
U2OS [1]; [10]
  autophagy induction: -2.833%
U2OS [1]; [11]
  autophagy induction: -13.0428%
U2OS [1]; [12]
  autophagy induction: -4.43%
U2OS [1]; [13]
  autophagy induction: -4.437%
U2OS [1]; [14]
  autophagy induction: -6.0772%
U2OS [2]; [3]
  autophagy induction: 7.101%
U2OS [2]; [4]
  autophagy induction: 7.652%
U2OS [2]; [5]
  autophagy induction: 1.469%
U2OS [2]; [6]
  autophagy induction: -11.3587%
U2OS [2]; [7]
  autophagy induction: 8.098%
U2OS [2]; [8]
  autophagy induction: 3.777%
U2OS [2]; [9]
  autophagy induction: 0.6599%
U2OS [2]; [10]
  autophagy induction: -6.18%
U2OS [2]; [11]
  autophagy induction: 6.84%
U2OS [2]; [12]
  autophagy induction: 4.331%
U2OS [2]; [13]
  autophagy induction: 3.398%
U2OS [2]; [14]
  autophagy induction: 7.256%

## CCOC(=O)c1cc(C#N)c(N2CCC(C(=O)NS(=O)(=O)Cc3ccccc3)CC2)nc1C
TERT-RPE1; [3]
  autophagy induction: -6.976%
TERT-RPE1; [4]
  autophagy induction: -10.3002%
TERT-RPE1; [5]
  autophagy induction: -8.825%
TERT-RPE1; [6]
  autophagy induction: -14.4044%
TERT-RPE1; [7]
  autophagy induction: -3.0862%
TERT-RPE1; [8]
  autophagy induction: -5.808%
TERT-RPE1; [9]
  autophagy induction: -6.285%
TERT-RPE1; [10]
  autophagy induction: -11.624%
TERT-RPE1; [11]
  autophagy induction: -2.8574%
TERT-RPE1; [12]
  autophagy induction: -4.514%
TERT-RPE1; [13]
  autophagy induction: -6.439%
TERT-RPE1; [14]
  autophagy induction: -9.708%
U2OS [1]; [3]
  autophagy induction: -5.45%
U2OS [1]; [4]
  autophagy induction: -2.451%
U2OS [1]; [5]
  autophagy induction: -3.099%
U2OS [1]; [6]
  autophagy induction: -2.587%
U2OS [1]; [7]
  autophagy induction: 4.284%
U2OS [1]; [8]
  autophagy induction: 0.2818%
U2OS [1]; [9]
  autophagy induction: 0.3824%
U2OS [1]; [10]
  autophagy induction: -0.02347%
U2OS [1]; [11]
  autophagy induction: -3.626%
U2OS [1]; [12]
  autophagy induction: -2.74%
U2OS [1]; [13]
  autophagy induction: -1.363%
U2OS [1]; [14]
  autophagy induction: -0.00442%
U2OS [2]; [3]
  autophagy induction: -1.238%
U2OS [2]; [4]
  autophagy induction: -0.869%
U2OS [2]; [5]
  autophagy induction: -0.6019%
U2OS [2]; [6]
  autophagy induction: -13.2748%
U2OS [2]; [7]
  autophagy induction: -11.375%
U2OS [2]; [8]
  autophagy induction: -8.508%
U2OS [2]; [9]
  autophagy induction: -7.086%
U2OS [2]; [10]
  autophagy induction: -3.832%
U2OS [2]; [11]
  autophagy induction: -0.3683%
U2OS [2]; [12]
  autophagy induction: 1.86%
U2OS [2]; [13]
  autophagy induction: -9.343%
U2OS [2]; [14]
  autophagy induction: -16.8017%

## Cc1csc(NC(=O)c2cc(F)cc(Oc3cncnc3)c2)n1
TERT-RPE1; [3]
  autophagy induction: -6.573%
TERT-RPE1; [4]
  autophagy induction: -11.4508%
TERT-RPE1; [5]
  autophagy induction: -15.1452%
TERT-RPE1; [6]
  autophagy induction: -20.0235%
TERT-RPE1; [7]
  autophagy induction: -3.733%
TERT-RPE1; [8]
  autophagy induction: -9.437%
TERT-RPE1; [9]
  autophagy induction: -10.535%
TERT-RPE1; [10]
  autophagy induction: -13.1148%
TERT-RPE1; [11]
  autophagy induction: -2.429%
TERT-RPE1; [12]
  autophagy induction: -5.833%
TERT-RPE1; [13]
  autophagy induction: -5.079%
TERT-RPE1; [14]
  autophagy induction: -4.061%
U2OS [1]; [3]
  autophagy induction: -6.672%
U2OS [1]; [4]
  autophagy induction: -2.592%
U2OS [1]; [5]
  autophagy induction: -1.939%
U2OS [1]; [6]
  autophagy induction: -1.765%
U2OS [1]; [7]
  autophagy induction: -5.1627%
U2OS [1]; [8]
  autophagy induction: -3.72%
U2OS [1]; [9]
  autophagy induction: -2.553%
U2OS [1]; [10]
  autophagy induction: -1.843%
U2OS [1]; [11]
  autophagy induction: -2.289%
U2OS [1]; [12]
  autophagy induction: -0.7242%
U2OS [1]; [13]
  autophagy induction: -0.5379%
U2OS [1]; [14]
  autophagy induction: -1.609%
U2OS [2]; [3]
  autophagy induction: -16.3524%
U2OS [2]; [4]
  autophagy induction: -14.7733%
U2OS [2]; [5]
  autophagy induction: -11.9866%
U2OS [2]; [6]
  autophagy induction: -8.75%
U2OS [2]; [7]
  autophagy induction: -9.821%
U2OS [2]; [8]
  autophagy induction: -11.197%
U2OS [2]; [9]
  autophagy induction: -11.4826%
U2OS [2]; [10]
  autophagy induction: -11.3338%
U2OS [2]; [11]
  autophagy induction: -1.626%
U2OS [2]; [12]
  autophagy induction: -3.326%
U2OS [2]; [13]
  autophagy induction: -2.706%
U2OS [2]; [14]
  autophagy induction: -7.422%

## CSc1ccc(C(=O)N[C@@H]2CCCC[C@@H]2NC(=O)CNC(=O)c2cc(C(F)(F)F)ccc2NC(=O)NC(C)C)cc1
TERT-RPE1; [3]
  autophagy induction: -7.317%
TERT-RPE1; [4]
  autophagy induction: -10.4362%
TERT-RPE1; [5]
  autophagy induction: -10.5931%
TERT-RPE1; [6]
  autophagy induction: -10.1253%
TERT-RPE1; [7]
  autophagy induction: -7.697%
TERT-RPE1; [8]
  autophagy induction: -8.893%
TERT-RPE1; [9]
  autophagy induction: -11.9452%
TERT-RPE1; [10]
  autophagy induction: -15.6367%
TERT-RPE1; [11]
  autophagy induction: -4.351%
TERT-RPE1; [12]
  autophagy induction: -5.968%
TERT-RPE1; [13]
  autophagy induction: -5.344%
TERT-RPE1; [14]
  autophagy induction: -2.567%
U2OS [1]; [3]
  autophagy induction: -1.519%
U2OS [1]; [4]
  autophagy induction: -1.673%
U2OS [1]; [5]
  autophagy induction: -0.1292%
U2OS [1]; [6]
  autophagy induction: -0.4268%
U2OS [1]; [7]
  autophagy induction: 6.41%
U2OS [1]; [8]
  autophagy induction: -0.3397%
U2OS [1]; [9]
  autophagy induction: 0.2664%
U2OS [1]; [10]
  autophagy induction: 0.6149%
U2OS [1]; [11]
  autophagy induction: -6.202%
U2OS [1]; [12]
  autophagy induction: -3.0141%
U2OS [1]; [13]
  autophagy induction: -1.6234%
U2OS [1]; [14]
  autophagy induction: -0.3642%
U2OS [2]; [3]
  autophagy induction: -3.4763%
U2OS [2]; [4]
  autophagy induction: -6.206%
U2OS [2]; [5]
  autophagy induction: -3.128%
U2OS [2]; [6]
  autophagy induction: -12.7895%
U2OS [2]; [7]
  autophagy induction: 8.51%
U2OS [2]; [8]
  autophagy induction: 8.515%
U2OS [2]; [9]
  autophagy induction: 8.998%
U2OS [2]; [10]
  autophagy induction: -1.4223%
U2OS [2]; [11]
  autophagy induction: 3.613%
U2OS [2]; [12]
  autophagy induction: 5.882%
U2OS [2]; [13]
  autophagy induction: 6.117%
U2OS [2]; [14]
  autophagy induction: 10.5977%
